The record followed here is ChEMBL document CHEMBL1914417 (Bioorg Med Chem Lett, 2011).

Calls of active or inactive are those of the source. No cut-off for these calls is given here. Some results are limits rather than exact numbers.

As a reminder, the EC50 is the concentration at which the effect is half-maximal. Higher therefore signals a less potent agent. By Emax is commonly meant the maximal effect, on the per cent scale that the assay sets.

Common to all, as to type: functional, cell-based
Experiment [1] deals with T1, Muscarinic acetylcholine receptor M5 (Rattus norvegicus, UniProt P08911).
T1 sequence (P08911 whole entry): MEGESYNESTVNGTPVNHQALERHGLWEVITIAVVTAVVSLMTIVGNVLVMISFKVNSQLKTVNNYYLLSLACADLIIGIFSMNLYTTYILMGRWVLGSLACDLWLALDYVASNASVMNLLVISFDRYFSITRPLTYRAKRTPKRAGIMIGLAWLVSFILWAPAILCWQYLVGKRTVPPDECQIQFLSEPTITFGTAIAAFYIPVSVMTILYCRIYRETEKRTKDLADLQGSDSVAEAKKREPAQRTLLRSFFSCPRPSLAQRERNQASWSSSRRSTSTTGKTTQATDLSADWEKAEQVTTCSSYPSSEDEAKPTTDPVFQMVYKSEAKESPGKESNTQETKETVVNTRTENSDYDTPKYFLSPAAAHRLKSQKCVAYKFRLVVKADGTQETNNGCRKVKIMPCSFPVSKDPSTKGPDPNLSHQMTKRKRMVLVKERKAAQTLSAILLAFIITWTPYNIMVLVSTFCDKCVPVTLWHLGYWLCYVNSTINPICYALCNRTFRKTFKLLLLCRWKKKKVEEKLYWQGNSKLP
The experiment is described as follows: Agonist activity at rat muscarinic M5 receptor expressed in CHO cells.

In experiment [2] the target is T2, Muscarinic acetylcholine receptor M4 (Rattus norvegicus, UniProt P08485).
T2 sequence (P08485 whole entry): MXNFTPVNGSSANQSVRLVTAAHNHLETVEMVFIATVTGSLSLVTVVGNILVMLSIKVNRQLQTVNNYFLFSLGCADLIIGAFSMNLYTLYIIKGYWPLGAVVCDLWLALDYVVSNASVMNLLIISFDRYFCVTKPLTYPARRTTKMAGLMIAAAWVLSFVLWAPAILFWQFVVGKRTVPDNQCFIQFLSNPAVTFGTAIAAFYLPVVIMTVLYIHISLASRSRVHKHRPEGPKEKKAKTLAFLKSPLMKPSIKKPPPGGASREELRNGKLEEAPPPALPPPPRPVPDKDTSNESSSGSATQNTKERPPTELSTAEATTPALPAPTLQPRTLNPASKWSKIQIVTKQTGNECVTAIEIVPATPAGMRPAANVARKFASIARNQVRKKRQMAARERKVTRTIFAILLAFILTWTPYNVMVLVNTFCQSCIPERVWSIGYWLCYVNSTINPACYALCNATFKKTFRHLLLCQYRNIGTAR
The experiment is described as follows: Agonist activity at rat muscarinic M4 receptor expressed in CHO cells.

The target of experiment [3] is Muscarinic acetylcholine receptor M3 (Rattus norvegicus, UniProt P08483). The experiment is described as follows: Agonist activity at rat muscarinic M3 receptor expressed in CHO cells.
Experiment [4] addresses T3, Muscarinic acetylcholine receptor M1 (Rattus norvegicus) (UniProt P08482).
T3 sequence (whole entry): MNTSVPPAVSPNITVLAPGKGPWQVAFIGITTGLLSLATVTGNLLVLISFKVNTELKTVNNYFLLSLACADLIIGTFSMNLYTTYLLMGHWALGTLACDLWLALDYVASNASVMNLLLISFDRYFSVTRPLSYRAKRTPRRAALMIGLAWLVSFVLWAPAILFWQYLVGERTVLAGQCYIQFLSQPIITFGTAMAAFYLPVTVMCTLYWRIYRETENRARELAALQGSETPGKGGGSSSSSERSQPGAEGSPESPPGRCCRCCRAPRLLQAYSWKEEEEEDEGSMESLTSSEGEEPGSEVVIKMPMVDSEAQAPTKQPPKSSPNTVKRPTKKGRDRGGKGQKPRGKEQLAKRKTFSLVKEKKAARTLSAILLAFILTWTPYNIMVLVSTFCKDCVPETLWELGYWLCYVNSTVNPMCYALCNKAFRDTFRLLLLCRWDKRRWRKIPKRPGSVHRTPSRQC
Description: Agonist activity at rat muscarinic M1 receptor expressed in CHO cells relative to acetylcholine.

The target in experiment [5] is T4, Muscarinic acetylcholine receptor M1 (Rattus norvegicus, UniProt P08482).
T4 sequence (P08482 whole entry): T3 sequence (whole entry)
Description: Agonist activity at rat muscarinic M1 receptor expressed in CHO cells.

Experiment [6] deals with T5, Muscarinic acetylcholine receptor M2 (Rattus norvegicus, UniProt P10980).
T5 sequence (P10980 whole entry): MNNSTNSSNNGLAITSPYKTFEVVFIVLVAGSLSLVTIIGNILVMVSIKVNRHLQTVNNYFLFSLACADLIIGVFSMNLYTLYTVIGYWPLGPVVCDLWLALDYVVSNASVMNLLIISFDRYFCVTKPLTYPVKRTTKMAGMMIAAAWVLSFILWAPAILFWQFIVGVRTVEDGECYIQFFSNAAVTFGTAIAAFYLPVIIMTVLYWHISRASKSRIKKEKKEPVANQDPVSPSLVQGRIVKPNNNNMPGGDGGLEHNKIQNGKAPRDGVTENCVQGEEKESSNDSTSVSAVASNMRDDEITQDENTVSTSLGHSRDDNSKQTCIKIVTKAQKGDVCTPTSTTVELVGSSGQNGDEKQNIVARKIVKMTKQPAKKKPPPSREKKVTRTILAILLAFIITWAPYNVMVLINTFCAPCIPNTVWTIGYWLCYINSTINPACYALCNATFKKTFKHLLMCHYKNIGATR
Description: Agonist activity at rat muscarinic M2 receptor expressed in CHO cells.

The target in experiment [7] is T3, Muscarinic acetylcholine receptor M1 (Rattus norvegicus). The experiment is described as follows: Agonist activity at rat muscarinic M1 receptor expressed in CHO cells at 10 uM.

Muscarinic acetylcholine receptor M3, sequence (P08483 whole entry): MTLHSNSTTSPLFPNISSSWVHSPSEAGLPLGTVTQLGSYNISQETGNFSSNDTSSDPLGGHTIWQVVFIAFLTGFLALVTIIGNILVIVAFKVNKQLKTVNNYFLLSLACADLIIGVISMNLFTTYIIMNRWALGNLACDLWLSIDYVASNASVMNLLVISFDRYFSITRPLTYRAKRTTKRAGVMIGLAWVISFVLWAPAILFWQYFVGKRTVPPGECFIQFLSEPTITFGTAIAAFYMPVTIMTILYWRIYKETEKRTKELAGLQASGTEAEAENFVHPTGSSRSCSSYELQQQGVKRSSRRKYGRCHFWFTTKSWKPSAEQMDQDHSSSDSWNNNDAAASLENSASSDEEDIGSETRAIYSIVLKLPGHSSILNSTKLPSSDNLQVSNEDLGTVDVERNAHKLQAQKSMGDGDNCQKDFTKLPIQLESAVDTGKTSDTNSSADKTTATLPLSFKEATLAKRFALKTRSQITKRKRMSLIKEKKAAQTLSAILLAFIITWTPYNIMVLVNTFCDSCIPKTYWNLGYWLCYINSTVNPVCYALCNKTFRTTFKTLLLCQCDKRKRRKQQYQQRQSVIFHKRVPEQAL

Regarding `CCOC(=O)N1CCC(N2CCC[C@@H](NC(=O)c3cccc(OC)c3)C2)CC1`, the EC50 is greater than 10 µM in experiment [1]; greater than 10 µM in experiment [2]; greater than 10 µM in experiment [3]; 0.25 µM in experiment [5]; greater than 10 µM in experiment [6]. Moreover, in experiment [4], the Emax worked out at 91%.
`CCOC(=O)N1CCC(N2CCC[C@@H](NC(=O)c3ccc(OC)cc3)C2)CC1`: the EC50 in experiment [1], in experiment [2], in experiment [3] and in experiment [6] was greater than 10 µM each time. The same compound gave an Emax in experiment [4] of 63%.
In turn, `CCOC(=O)N1CCC(N2C[C@@H]3C[C@H]2CN3C(=O)c2ccccc2C)CC1` had an activation in experiment [7] of less than 30%.
With `CCOC(=O)N1CCC(N2CCC[C@@H](NC(=O)c3ccc(F)c(F)c3)C2)CC1`, the EC50 in experiment [1], in experiment [2], in experiment [3] and in experiment [6] was greater than 10 µM throughout. In addition, the Emax in experiment [4] was determined as 84%.
As for `CCOC(=O)N1CCC(N2CCC[C@@H](NC(=O)c3ccccc3Cl)C2)CC1`, the EC50 in experiment [1], in experiment [2], in experiment [3] and in experiment [6] was greater than 10 µM each time. Moreover, the Emax in experiment [4] came out at 57%.
As to `CCOC(=O)N1CCC(N2CCC[C@@H](NC(=O)c3ccc(F)cc3C)C2)CC1`, the EC50 in experiment [1] is greater than 10 µM; in experiment [2], greater than 10 µM; in experiment [3], greater than 10 µM; in experiment [5], 0.06 µM; in experiment [6], greater than 10 µM. In experiment [4], this compound came in with an Emax of 77%.
The compound `CCOC(=O)N1CCC(N2CC[C@@H](NC(=O)c3ccccc3C)C2)CC1` gave an activation in experiment [7] of less than 30%.
Regarding `CCOC(=O)N1CCC(N2CCC[C@@H](NC(=O)C3CCCC3)C2)CC1`, the EC50 in experiment [1], in experiment [2], in experiment [3] and in experiment [6] was greater than 10 µM in each case. In experiment [4], this compound showed an Emax of 35%.
The compound `CCOC(=O)N1CCC(N2CC[C@H](NC(=O)c3ccccc3C)C2)CC1` had an activation in experiment [7] of less than 30%.
On the same count and under the same terms, the entry for `CCOC(=O)N1CCC(N2CCC[C@H](NC(=O)c3ccccc3C)C2)CC1` is “inactive”; for `CCOC(=O)N1CCC(N2CCN(C(=O)c3ccccc3C)CC2)CC1` it is less than 30%.
In the case of `CCOC(=O)N1CCC(N2CCC[C@@H](NC(=O)c3ccc(C)cc3)C2)CC1`, the EC50 in experiment [1], in experiment [2], in experiment [3] and in experiment [6] was greater than 10 µM in each case. In addition, the maximal response (Emax) in experiment [4] worked out at 41%.
Regarding `CCOC(=O)N1CCC(N2C[C@H]3CN(C(=O)c4ccccc4C)C[C@H]3C2)CC1`, in experiment [7], the activation was less than 30%.
As to `CCOC(=O)N1CCC(N2CCC[C@@H](NC(=O)c3cccc(F)c3)C2)CC1`, the EC50 in experiment [1] was greater than 10 µM; in experiment [2], greater than 10 µM; in experiment [3], greater than 10 µM; in experiment [5], 0.14 µM; in experiment [6] it was greater than 10 µM. For the same compound, the maximal response (Emax) in experiment [4] came out at 92%.
The compound `CCOC(=O)N1CCC(N[C@@H]2CCN(C(=O)c3ccccc3C)C2)CC1` yielded an activation in experiment [7] of less than 30%.
On to `CCOC(=O)N1CCC(N2CCC[C@@H](NC(=O)c3cccs3)C2)CC1`, for which the EC50 in experiment [1], in experiment [2], in experiment [3] and in experiment [6] was greater than 10 µM throughout. Further, the maximal response (Emax) in experiment [4] was 61%.
Regarding `CCOC(=O)N1CCC(N2CCC[C@@H](NC(=O)c3ccccc3)C2)CC1`, the EC50 in experiment [1] is greater than 10 µM; in experiment [2] it was greater than 10 µM; in experiment [3], greater than 10 µM; in experiment [5] it was 0.13 µM; in experiment [6], greater than 10 µM. In experiment [4], the Emax came to 91%.
`CCOC(=O)N1CCC(N2CCC[C@@H](NC(=O)C3CCCCC3)C2)CC1`: the EC50 in experiment [1], in experiment [2], in experiment [3] and in experiment [6] was greater than 10 µM throughout. The compound also registered a maximal effect (Emax) in experiment [4] of 44%.
`CCOC(=O)N1CCC(N[C@H]2CCN(C(=O)c3ccccc3C)C2)CC1` gave an activation in experiment [7] of less than 30%.
